Data published in publication PMC11969438 (Inorganic Chemistry Frontiers, 2025).

Key:
[1] = tested on: NF-κB pathway (STING-dependent); assay: NF-κB-inducible SEAP reporter in THP1-Dual reporter cell model; assay type: cell-based, human; conditions: for EC50: 24 h exposure, normalized to cell viability, oxaliplatin in combinations 5 μM
Description: (§1) The THP1-Dual™ reporter cell model for simultaneously monitoring the activity of the IRF and NF-κB pathway contains an IRF-inducible luciferase reporter under the control of an ISG54 minimal promoter in conjunction with five interferon (IFN)-stimulated response elements, and an induced SEAP driven by an IFN-β minimal promoter fused to five copies of the NF-κB consensus transcriptional response element and three copies of the c-Rel binding site. The luciferase and SEAP reporter are measurable in the cell culture supernatant using QUANTI-Luc™ 4 Lucia/Gaussia (InvivoGen) and QUANTI-Blue™ (InvivoGen) solution, respectively. Cells were seeded at 1 × 10^5 cells per well in 96-well plates in RPMI-1640 medium, supplemented with 10% FCS, L-glutamine and Pen-Strep. After 2 h of recovery, the compounds were applied at the concentrations indicated in triplicate. The cell culture supernatant (SN) was collected after 24 h of drug incubation and secreted luciferase and SEAP reporter levels were measured according to the manufacturer's recommendations. In brief, for the detection of luciferase, 20 μL of SN were transferred into 96-well white opaque plates, and 30 μL of QUANTI-Luc™ reagent were added per well using an injector module in a multimode microplate reader (Tecan Spark, Zurich, Switzerland). Luminescence was recorded at a reading time of 0.1 second. For the detection of SEAP, 10 μL of SN were transferred to 96-well plates and 90 μL of QUANTI-Blue™ were added per well. Absorbance was measured at 620 nm. Half-maximal effective concentrations (EC50 values) were derived via interpolation from dose–response curves, modeled with the four-parameter logistic (4PL) nonlinear regression model in GraphPad Prism. For comparison, the maximal response rate of the prodrug was depicted in the percent of the maximal response rate achieved by SR-717 or MSA-2 (%EMAX) at the respective concentrations tested. Activatability, tested in co-incubation experiments with AA (50 μM), was expressed as the area under the curve (AUC) ratio of +AA vs. −AA-treated cells. The STING-dependency of the reporter induction was tested by co-administration of the STING inhibitor H-151 (10 μM), added to the cell culture medium 2 h before applying the investigated compounds. In addition to monitoring secreted reporter levels, the cell viability of the reporter cells was determined after 24 h of drug treatment by an MTT-based cell viability assay.

[2] = tested on: IRF pathway (STING-dependent); assay: IRF-inducible luciferase reporter in THP1-Dual reporter cell model; assay type: cell-based, human; conditions: for EC50: 24 h exposure, normalized to cell viability, oxaliplatin in combinations 5 μM
Description: as §1

[3] = tested on: THP1-Dual, HCT116, HCT116/OxR and CT-26 cells; assay: MTT-based cell viability assay, 72 h, statements over all investigated cell lines; set-up: species or system human and murine; conditions: none of the investigated cell lines vulnerable, read-out: IC50 of free single agent
Protocol: Cell models were seeded (2–2.5 × 10^3 cells per well) in 96-well plates. After 24 h of recovery, the compounds were applied at the concentrations indicated in triplicate. Cell viability was determined after 72 h of continuous drug incubation using an MTT-based cell viability assay (EZ4U, Biomedica, Vienna, Austria) according to the manufacturer's recommendations. Absorbance was measured at 450 nm (vs. 620 nm as reference) using a multimode microplate reader (Tecan Spark, Zurich, Switzerland). Half-maximal inhibitory concentrations (IC50 values) were derived via interpolation from dose–response curves, modeled with the four-parameter logistic (4PL) nonlinear regression model in GraphPad Prism (La Jolla, CA, USA) from at least three independent experiments.

CT-26 tumors = assay: Anticancer efficacy in vivo, syngeneic colorectal carcinoma; set-up: species or system BALB/c mice; conditions: i.v. twice a week for two weeks, equimolar to 9 mg kg^−1 oxaliplatin
Protocol: Tumor size was determined daily via manual caliper measurement. […] Animals were euthanized via cervical dislocation.

THP1-Dual cells [4] = assay: Quantitative RT-PCR of target genes downstream of STING; assay type: cell-based, human; conditions: 24 h, prodrugs 100 μM, MSA-2 25 μM
Protocol: The THP1-Dual cell model was seeded at 1 × 10^6 cells per well in six-well plates. After 24 h of recovery, the compounds were applied at the concentrations indicated. After 24 h of drug exposure, total RNA was isolated using TRIzol reagent (Thermo Fisher Scientific, MA, USA), as described previously.[12] RNA was reverse transcribed into cDNA using RevertAid Reverse Transcriptase (Thermo Fisher Scientific). Real-time PCR was performed using the GoTaq® RT-qPCR system (Promega) with a CFX96 Touch Real-Time PCR Detection System (Bio-Rad Laboratories). Relative mRNA levels were quantified using the 2^−ddCT method.[54] RPL41 was used as a housekeeping gene. Human-specific primers were purchased from Eurofins Genomics (Ebersberg, Germany) with the following sequences: RPL41: fwd (5′-[…]-3′), rev (5′-[…]-3′); IFNB1: fwd (5′-CTTGGATTCCTACAAAGAAGCAGC-3′), rev (5′-[…]-3′); ISG15: fwd (5′-[…]-3′), rev (5′-[…]-3′); IFIT1: fwd (5′-[…]-3′), rev (5′-[…]-3′); CXCL10: fwd (5′-[…]-3′), rev (5′-[…]-3′); and CCL5: fwd (5′-[…]-3′), rev (5′-[…]-3′).

THP1-Dual cells [5] = assay: Cytokine and chemokine secretion in cell culture supernatant, Luminex; assay type: cell-based, human; conditions: 24 h, prodrug 100 μM, MSA-2 25 μM
Protocol: Quantification of secreted protein targets in either cell culture SN or in plasma of treated animals was performed using a ProcartaPlex (96-well) multiplex assay panel (Thermo Fisher Scientific) in the xMAP detection platform (Luminex). For the in vitro detection of secreted proteins, THP1-Dual cells were seeded at 1 × 10^5 cells per well in 96-well plates in RPMI-1640 medium, supplemented with 10% FCS, L-glutamine and Pen-Strep. After 24 h of recovery, the compounds were applied at the concentrations indicated in triplicate.
After 24 h of drug incubation, the cell culture SN of technical triplicate was collected, pooled, centrifuged (400g, 10 min, 4 °C), transferred into a fresh tube, and stored at −20 °C.
Next, the ProcartaPlex (96-well) multiplex assay panel was performed according to the manufacturer's recommendations. In brief, the capture bead mix was incubated with test samples (undiluted SN or mouse plasma) or standard mix overnight. The SN of three independent experiments or the plasma of four animals per treatment group was loaded onto the multiplex assay plate. Next, biotinylated detection antibody mix and Streptavidin-PE were added to the plate. Following the recommended washing steps, the samples were incubated in a reading buffer and were measured using a Luminex xMAP platform (Bio-Plex MAGPIX Multiplex Reader; Bio-Rad Laboratories) and analyzed using xPONENT software.

THP1-Dual cells [6] = assay: Western blot analysis of STING downstream pathway, DNA damage and cell death markers; assay type: cell-based, human; conditions: 24 h
Protocol: The THP1-Dual cell model was seeded at 1 × 10^6 cells per well in six-well plates. After 24 h of recovery, the compounds were applied at the concentrations indicated. After 24 h of drug exposure, whole-cell protein isolation was performed as described previously.[14] Sodium dodecyl sulfate polyacrylamide gel electrophoresis was performed. Proteins were transferred onto polyvinylidene difluoride membranes (Thermo Scientific, Waltham, MA, USA). Antibodies targeting STING (##13 647; 1 : 1000), phospho-STING (#19 781; 1 : 500), TBK1 (#3504; 1 : 500), IRF-3 (#4302; 1 : 500), phospho-p65 (#3033; 1 : 500), ISG15 (#2743; 1 : 1000), caspase-3 (#9665; 1 : 1000), cleaved caspase-3 (#9661; 1 : 1000), PARP (#9532; 1 : 1000), and cleaved PARP (#9541; 1 : 1000) were purchased from Cell Signaling Technology (Danvers, MA, USA). The p65 antibody (#sc-372; 1 : 1000) was purchased from Santa Cruz and the phospho-H2A.X antibody (#05-636-I; 1 : 500) was obtained from Merck (Darmstadt, Germany). The anti-β-actin (#5441; 1 : 2000) antibody was obtained from Sigma-Aldrich. The anti-mouse IgG (#A0168; 1 : 10 000) horseradish peroxidase (HRP)-coupled secondary antibody was purchased from Sigma-Aldrich, and the anti-rabbit IgG (#7074; 1 : 5000) HRP-linked secondary antibody was obtained from Cell Signaling Technology.

[7] = Reduction kinetics with 10 eq. L-ascorbic acid in phosphate buffer, UHPLC; assay type: physicochemical; conditions: 10 eq. AA, PB pH 7.4, 20 °C; for original compound left in presence of AA: after 5 h
Protocol: (§2) PB (150 mM, pH 7.4) containing 1 mM platinum compound was incubated at 20 °C, with and without the addition of 10 eq. of AA. The reaction was monitored using a Thermo Scientific Dionex UltiMate 3000 UHPLC system with a Waters Acquity UPLC BEH C18 1.7 μm 3.0 × 50 mm column. Milli-Q water containing 0.1% formic acid and acetonitrile containing 0.1% formic acid were used as eluents. A gradient of 5–95% over 5 min was used with a flow of 0.6 mL min^−1. To evaluate the current state of the reaction, the peak area of the parental complex was used.

[8] = Hydrolytic stability in phosphate buffer, UHPLC; assay type: physicochemical; conditions: 1 mM, 150 mM PB pH 7.4, 20 °C, over 5 h
Protocol: as §2

THP1-Dual cells [9] = assay: Intracellular platinum accumulation in vitro by ICP-MS; assay type: cell-based, human; conditions: 3 h exposure, compared to oxaliplatin
Protocol: The THP1-Dual cell model was seeded at 1 × 10^6 cells per well in six-well plates. After 24 h of recovery, the compounds were applied at the concentrations indicated in triplicate. After 3 h of drug exposure, the cells were prepared as published previously.[13] […] The lysate was filled up to 8 mL with water. The platinum concentration was determined by ICP-MS analysis. Platinum and rhenium standards were derived from CPI International (Amsterdam, the Netherlands). The total platinum content was determined with an Agilent 7800 quadrupole-based ICP-MS instrument (Agilent Technologies, Tokyo, Japan) equipped with an Agilent SPS 4 autosampler (Agilent Technologies, Tokyo, Japan) and a MicroMist nebulizer at a sample uptake rate of approximately 0.2 mL min^−1. […] Argon was used as a plasma gas (15 L min^−1) and as a carrier gas (∼1.1 L min^−1). The dwell time was set to 0.1 s and the measurements were performed in 12 replicates with 100 sweeps. Rhenium served as an internal standard for platinum.

[10] = H-151 10 μM added 2 h before the compounds
[11] = 24 h, maximal response relative to SR-717

Structure (SMILES): CCc1ccc(NC(=O)Nc2c[nH]c3ccccc23)cc1 [H-151]
- effect on agonist- and prodrug-induced NF-κB reporter signal [1, 10]: completely abolished
- effect on agonist- and prodrug-induced IRF reporter signal [2, 10]: completely abolished

Structure (SMILES): COc1cc2cc(C(=O)CCC(=O)O)sc2cc1OC [MSA-2]
- IC50 [3]: > 75 µM
- tumor growth (CT-26 tumors): significantly inhibited malignant growth
- NF-κB EC50 ratio fold MSA-2 ([1]; 24 h): 1.0 fold
- activation of NF-κB signaling pathway ([1]; 24 h): robustly activated
- NF-κB %EMAX of MSA-2 ([1]; 24 h, maximal response relative to MSA-2): 100%
- EC50 [1]: 17.7 µM
- mRNA induction of immune response genes (IFN-β, ISG15, IFIT1, CXCL10, CCL5) (THP1-Dual cells [4]): distinctly induced
- IRF EC50 ratio fold MSA-2 ([2]; 24 h): 1.0 fold
- activation of IRF signaling pathway ([2]; 24 h): robustly activated
- fold lower IRF-inducing activity compared to SR-717 ([2]; 24 h): ~3.1 fold
- IRF %EMAX of MSA-2 ([2]; 24 h, maximal response relative to MSA-2, highest tested dose 100 μM): 100%
- EC50 [2]: 9.1 µM
- impact of reducing conditions on IRF-induced reporter signal (AUC ratio +AA/−AA) ([2]; AA 50 μM): no notable modulation
- secretion of cytokines and chemokines (THP1-Dual cells [5]): induced distinct secretion of cytokines and chemokines
- DNA damage (p-H2A.X upregulation, cleavage of caspase-3 and PARP) (THP1-Dual cells [6]): induced DNA damage
- induction of ISG15 (THP1-Dual cells [6]): triggered
- phosphorylation of NF-κB (p65) (THP1-Dual cells [6]): only detected in cells treated with MSA-2

Structure (SMILES): CC(=O)[O][Pt-2]12([O]C(=O)c3cc(F)c(F)cc3N)([NH2+][C@@H]3CCCC[C@H]3[NH2+]1)[O]C(=O)C(=O)[O]2 [Ox-Bz-F2-NH2]
- original compound left in presence of AA [7]: approximately 80%

Structure (SMILES): CC(=O)Nc1cc(F)c(F)cc1C(=O)[O][Pt-2]12([O]C(C)=O)([NH2+][C@@H]3CCCC[C@H]3[NH2+]1)[O]C(=O)C(=O)[O]2 [Ox-Bz-F2-NHAc]
- original compound left in presence of AA [7]: 40%

Structure (SMILES): CC(=O)[O][Pt-2]12([O]C(=O)c3ccc(F)c(F)c3)([NH2+][C@@H]3CCCC[C@H]3[NH2+]1)[O]C(=O)C(=O)[O]2 [Ox-Bz-F2]
- original compound left in presence of AA [7]: approximately 95%

Structure (SMILES): CC(=O)[O][Pt-2]12([O]C(=O)c3ccccc3)([NH2+][C@@H]3CCCC[C@H]3[NH2+]1)[O]C(=O)C(=O)[O]2 [Ox-Bz]
- original compound left in presence of AA [7]: approximately 95%

Structure (SMILES): COCCOCCOCCOCCC(=O)[O][Pt-2]12([O]C(=O)c3cc(F)c(F)cc3NC(=O)c3ccc(-n4ccnc4)nn3)([NH2+][C@@H]3CCCC[C@H]3[NH2+]1)[O]C(=O)C(=O)[O]2 [Ox-SR-PEG-Es]
- hydrolytic stability [8]: No significant hydrolysis
- NF-κB %EMAX of SR-717 [1, 11]: 52%
- EC50 [1]: 35.1 µM
- IRF %EMAX of SR-717 [2, 11]: 66%
- EC50 [2]: 12.4 µM
- original prodrug remaining in presence of AA ([7]; after ∼3 h): only traces
- cellular platinum accumulation (THP1-Dual cells [9]): significantly higher platinum levels compared to oxaliplatin
